Species on record: Rattus norvegicus
Test: DrugMatrix - Regimen: Daily Repeat
Format: toxicity, organism-based, Sprague-Dawley
Set-up: regimen Daily Repeat, gender Male, age 6-8 weeks
Conditions: in vivo, po, route oral GAVAGE, vehicle 100 % SALINE; for ABSOLUTE BASOPHIL / ABSOLUTE EOSINOPHIL / ABSOLUTE LYMPHOCYTE / ABSOLUTE MONOCYTE / ABSOLUTE SEGMENTED NEUTROPHIL / BASOPHIL / EOSINOPHIL / ERYTHROCYTE COUNT / HEMATOCRIT / HEMOGLOBIN / LEUKOCYTE COUNT / LYMPHOCYTE / MEAN CORPUSCULAR HEMOGLOBIN / MEAN CORPUSCULAR HEMOGLOBIN CONCENTRATION / MEAN CORPUSCULAR VOLUME / MONOCYTE / NEUTROPHIL / NUCLEATED RED BLOOD CELLS / PLATELET COUNT: tissue Blood; for ALANINE AMINOTRANSFERASE / ALBUMIN / ALKALINE PHOSPHATASE / ASPARTATE AMINOTRANSFERASE / BLOOD UREA NITROGEN / CARBON DIOXIDE / CHLORIDE / CHOLESTEROL / CREATINE PHOSPHOKINASE / CREATININE / GLUCOSE / LACTATE DEHYDROGENASE / LIPASE / PHOSPHORUS / POTASSIUM / SODIUM / TOTAL BILIRUBIN / TOTAL PROTEIN / URIC ACID: tissue Plasma
[1] = 0 mg/kg, 72 h, dose level Control, time 3 day
[2] = 0 mg/kg, 120 h, dose level Control, time 5 day
[3] = […], 72 h, dose 2.3 mg/Kg, dose level Low, time 3 day
[4] = […], 120 h, dose 2.3 mg/Kg, dose level Low, time 5 day

CC(CN1c2ccccc2Sc2ccccc21)N(C)C (configuration not stated) [PROMETHAZINE]
ABSOLUTE BASOPHIL [1]: 0 CELLS/uL | ABSOLUTE EOSINOPHIL [1]: 65.67 CELLS/uL | ABSOLUTE LYMPHOCYTE [1]: 17283.5 CELLS/uL | ABSOLUTE MONOCYTE [1]: 0 CELLS/uL | ABSOLUTE SEGMENTED NEUTROPHIL [1]: 1284.17 CELLS/uL | BASOPHIL [1]: 0% | EOSINOPHIL [1]: 0.33% | ERYTHROCYTE COUNT [1]: 5.46 x10E6/uL | HEMATOCRIT [1]: 34.28% | HEMOGLOBIN [1]: 13.78 G/DL | LEUKOCYTE COUNT [1]: 18.63 x10E3/uL | LYMPHOCYTE [1]: 92.67% | MEAN CORPUSCULAR HEMOGLOBIN [1]: 25.3 pg | MEAN CORPUSCULAR HEMOGLOBIN CONCENTRATION [1]: 40.22 G/DL | MEAN CORPUSCULAR VOLUME [1]: 62.87 fL | MONOCYTE [1]: 0% | NEUTROPHIL [1]: 7% | NUCLEATED RED BLOOD CELLS [1]: 0 /100WBC | PLATELET COUNT [1]: 1244.83 x10E3/uL | ALANINE AMINOTRANSFERASE [1]: 52.83 u/L | ALBUMIN [1]: 4 G/DL | ALKALINE PHOSPHATASE [1]: 327.67 u/L | ASPARTATE AMINOTRANSFERASE [1]: 78.83 u/L | BLOOD UREA NITROGEN [1]: 13.83 mg/dL | CARBON DIOXIDE [1]: 26.67 mmol/L | CHLORIDE [1]: 99.67 MEQ/L | CHOLESTEROL [1]: 69 mg/dL | CREATINE PHOSPHOKINASE [1]: 350.17 u/L | CREATININE [1]: 0.21 mg/dL | GLUCOSE [1]: 173.83 mg/dL | LACTATE DEHYDROGENASE [1]: 168.33 u/L | LIPASE [1]: 11 u/L | PHOSPHORUS [1]: 12.7 mg/dL | POTASSIUM [1]: 6.88 MEQ/L | SODIUM [1]: 141.68 MEQ/L | TOTAL BILIRUBIN [1]: 0.22 mg/dL | TOTAL PROTEIN [1]: 6.02 G/DL | URIC ACID [1]: 1.9 mg/dL | ABSOLUTE BASOPHIL [2]: 0 CELLS/uL | ABSOLUTE EOSINOPHIL [2]: 14.83 CELLS/uL | ABSOLUTE LYMPHOCYTE [2]: 12880 CELLS/uL | ABSOLUTE MONOCYTE [2]: 90.67 CELLS/uL | ABSOLUTE SEGMENTED NEUTROPHIL [2]: 864.5 CELLS/uL | BASOPHIL [2]: 0% | EOSINOPHIL [2]: 0.17% | ERYTHROCYTE COUNT [2]: 5.83 x10E6/uL | HEMATOCRIT [2]: 35.87% | HEMOGLOBIN [2]: 14 G/DL | LEUKOCYTE COUNT [2]: 13.85 x10E3/uL | LYMPHOCYTE [2]: 92.5% | MEAN CORPUSCULAR HEMOGLOBIN [2]: 24.03 pg | MEAN CORPUSCULAR HEMOGLOBIN CONCENTRATION [2]: 39.03 G/DL | MEAN CORPUSCULAR VOLUME [2]: 61.53 fL | MONOCYTE [2]: 0.67% | NEUTROPHIL [2]: 6.67% | NUCLEATED RED BLOOD CELLS [2]: 0 /100WBC | PLATELET COUNT [2]: 1041.83 x10E3/uL | ALANINE AMINOTRANSFERASE [2]: 56 u/L | ALBUMIN [2]: 4.47 G/DL | ALKALINE PHOSPHATASE [2]: 319 u/L | ASPARTATE AMINOTRANSFERASE [2]: 89.17 u/L | BLOOD UREA NITROGEN [2]: 15.2 mg/dL | CARBON DIOXIDE [2]: 24 mmol/L | CHLORIDE [2]: 104.4 MEQ/L | CHOLESTEROL [2]: 69.5 mg/dL | CREATINE PHOSPHOKINASE [2]: 295.83 u/L | CREATININE [2]: 0.21 mg/dL | GLUCOSE [2]: 124.33 mg/dL | LACTATE DEHYDROGENASE [2]: 325.5 u/L | LIPASE [2]: 14.67 u/L | PHOSPHORUS [2]: 11.45 mg/dL | POTASSIUM [2]: 6.74 MEQ/L | SODIUM [2]: 151.4 MEQ/L | TOTAL BILIRUBIN [2]: 0.23 mg/dL | TOTAL PROTEIN [2]: 6.45 G/DL | URIC ACID [2]: 1.18 mg/dL | ABSOLUTE BASOPHIL [3]: 0 CELLS/uL | ABSOLUTE EOSINOPHIL [3]: 137 CELLS/uL | ABSOLUTE LYMPHOCYTE [3]: 14557.33 CELLS/uL | ABSOLUTE MONOCYTE [3]: 165.33 CELLS/uL | ABSOLUTE SEGMENTED NEUTROPHIL [3]: 1673.67 CELLS/uL | BASOPHIL [3]: 0% | EOSINOPHIL [3]: 1% | ERYTHROCYTE COUNT [3]: 5.52 x10E6/uL | HEMATOCRIT [3]: 34.93% | HEMOGLOBIN [3]: 13.67 G/DL | LEUKOCYTE COUNT [3]: 16.53 x10E3/uL | LYMPHOCYTE [3]: 88.33% | MEAN CORPUSCULAR HEMOGLOBIN [3]: 24.8 pg | MEAN CORPUSCULAR HEMOGLOBIN CONCENTRATION [3]: 39.13 G/DL | MEAN CORPUSCULAR VOLUME [3]: 63.3 fL | MONOCYTE [3]: 1% | NEUTROPHIL [3]: 9.67% | NUCLEATED RED BLOOD CELLS [3]: 0 /100WBC | PLATELET COUNT [3]: 1282.33 x10E3/uL | ALANINE AMINOTRANSFERASE [3]: 48 u/L | ALBUMIN [3]: 4.07 G/DL | ALKALINE PHOSPHATASE [3]: 265 u/L | ASPARTATE AMINOTRANSFERASE [3]: 76 u/L | BLOOD UREA NITROGEN [3]: 13.67 mg/dL | CARBON DIOXIDE [3]: 25.33 mmol/L | CHLORIDE [3]: 102 MEQ/L | CHOLESTEROL [3]: 62.67 mg/dL | CREATINE PHOSPHOKINASE [3]: 306.33 u/L | CREATININE [3]: 0.2 mg/dL | GLUCOSE [3]: 164.67 mg/dL | LACTATE DEHYDROGENASE [3]: 197.33 u/L | LIPASE [3]: 10.33 u/L | PHOSPHORUS [3]: 11.33 mg/dL | POTASSIUM [3]: 6.26 MEQ/L | SODIUM [3]: 142.7 MEQ/L | TOTAL BILIRUBIN [3]: 0.2 mg/dL | TOTAL PROTEIN [3]: 5.87 G/DL | URIC ACID [3]: 1.63 mg/dL | ABSOLUTE BASOPHIL [4]: 0 CELLS/uL | ABSOLUTE EOSINOPHIL [4]: 47.67 CELLS/uL | ABSOLUTE LYMPHOCYTE [4]: 14175.67 CELLS/uL | ABSOLUTE MONOCYTE [4]: 210 CELLS/uL | ABSOLUTE SEGMENTED NEUTROPHIL [4]: 1533.33 CELLS/uL | BASOPHIL [4]: 0% | EOSINOPHIL [4]: 0.33% | ERYTHROCYTE COUNT [4]: 5.54 x10E6/uL | HEMATOCRIT [4]: 35.6% | HEMOGLOBIN [4]: 13.8 G/DL | LEUKOCYTE COUNT [4]: 15.97 x10E3/uL | LYMPHOCYTE [4]: 89% | MEAN CORPUSCULAR HEMOGLOBIN [4]: 24.93 pg | MEAN CORPUSCULAR HEMOGLOBIN CONCENTRATION [4]: 38.77 G/DL | MEAN CORPUSCULAR VOLUME [4]: 64.27 fL | MONOCYTE [4]: 1.33% | NEUTROPHIL [4]: 9.33% | NUCLEATED RED BLOOD CELLS [4]: 0 /100WBC | PLATELET COUNT [4]: 1323 x10E3/uL | ALANINE AMINOTRANSFERASE [4]: 48.67 u/L | ALBUMIN [4]: 4.2 G/DL | ALKALINE PHOSPHATASE [4]: 312 u/L | ASPARTATE AMINOTRANSFERASE [4]: 76.33 u/L | BLOOD UREA NITROGEN [4]: 12.67 mg/dL | CARBON DIOXIDE [4]: 22 mmol/L | CHLORIDE [4]: 103.67 MEQ/L | CHOLESTEROL [4]: 67.67 mg/dL | CREATINE PHOSPHOKINASE [4]: 212 u/L | CREATININE [4]: 0.17 mg/dL | GLUCOSE [4]: 187 mg/dL | LACTATE DEHYDROGENASE [4]: 113 u/L | LIPASE [4]: 9 u/L | PHOSPHORUS [4]: 11.2 mg/dL | POTASSIUM [4]: 6.01 MEQ/L | SODIUM [4]: 144.6 MEQ/L | TOTAL BILIRUBIN [4]: 0.17 mg/dL | TOTAL PROTEIN [4]: 6.07 G/DL | URIC ACID [4]: 2.13 mg/dL
